Read-outs that look alike come from different tables or passages of the source.
Columns and labels:
hNTS1R = target: T1, hNTS1R (Homo sapiens, UniProt P30989); test: Radioligand competition binding with [^3H]UR-MK300 at intact HT-29 cells; conditions: [^3H]UR-MK300 (Kd = […], c = 1 nM), 23 °C
T1 construct: at hNTS1R expressing intact human HT-29 colon carcinoma cells; endogenous in cells; host or cells: HT-29 human colon carcinoma cells (intact)
Method: Unspecific binding was subtracted from total binding to obtain specific binding. Data analysis was performed by plotting % specifically bound radioligand (100% = specifically bound radioligand in the absence of competitor) over log(concentration of competitor) followed by a four-parameter logistic fit (SigmaPlot 12.5, Systat Software). […] The Ki values from individual experiments were transformed to pKi values, followed by the calculation of mean pKi values ± SEM.

[1] = In vitro stability in human plasma/PBS (1:2 v/v) at 37 °C; format: in vitro ADME; conditions: human blood plasma/PBS (1:2 v/v), read-out: % intact peptide in human plasma after the given incubation time; for remaining at 10 min, 100 µM: pH 7.4, 10 min; for remaining at 25 min, 100 µM: pH 7.4, 25 min; for remaining at 1 h, 100 µM: pH 7.4, 1 h; for remaining at 2 h, 100 µM: pH 7.4, 2 h; for remaining at 6 h, 100 µM: pH 7.4, 6 h; for remaining at 24 h, 100 µM: pH 7.4, 24 h; for remaining at 48 h, 100 µM: pH 7.4, 48 h
Method: The metabolic stabilities of 11–14, 16 and 18–21 (cf. Table 2) were investigated in human blood plasma/PBS (136.9 mM NaCl, 2.68 mM KCl, 5.62 mM Na2HPO4, 1.09 mM NaH2PO4 and 1.47 mM KH2PO4) pH 7.4 (1:2, v/v) according to a described procedure[13] with the following modifications: 5 mM stock solutions in EtOH/0.04% aq TFA (30:70 v/v) (11–13), MeCN/0.025% aq TFA (30:70 v/v) (14), MeCN/0.04% aq TFA (30:70 v/v) (16, 19 and 21) or EtOH/H2O (40:60 v/v) (18, 20) were used for the addition of the peptides to plasma/PBS (1:2 v/v). As the RP-HPLC purity of 1-Methyl-D-Trp (internal standard, IS) was < 95% (data not shown), the compound was purified by preparative HPLC to give a purity of > 99%. The concentration of the peptides in plasma/PBS (1:2 v/v) was 80 and 4 µM (recovery determination) or 100 µM (stability tests). The obtained recoveries and the recovery ratios (peptide/internal standard) are summarized in Supplementary Table S1. Data analysis was based on UV detection at 220 nm. Additionally, the stability of compound 21 was investigated in mouse plasma/PBS (1:2 v/v) using the same procedure as described above for human plasma. Mouse plasma was obtained by the collection of blood from anaesthetized mice via cardiac puncture using a syringe that was rinsed with sodium heparin (25,000 I.E., Ratiopharm, Ulm, Germany). The heparinized blood was transferred into a 2-mL reaction vessel, followed by centrifugation (1200 g, 4 °C, 10 min). The supernatants were pooled, centrifuged again (1200 g, 4 °C, 10 min), the plasma was aliquoted and stored at − 80 °C. The concentration of 21 in plasma/PBS (1:2 v/v) was 80 and 4 μM (recovery determination) or 100 μM (stability tests). The obtained recoveries and the recovery ratios (21/IS) are summarized in Supplementary Table S2. Data analysis was based on UV detection at 220 nm.

[2] = read-out: pKi ± SEM (converted)

T1 sequence (P30989 whole entry): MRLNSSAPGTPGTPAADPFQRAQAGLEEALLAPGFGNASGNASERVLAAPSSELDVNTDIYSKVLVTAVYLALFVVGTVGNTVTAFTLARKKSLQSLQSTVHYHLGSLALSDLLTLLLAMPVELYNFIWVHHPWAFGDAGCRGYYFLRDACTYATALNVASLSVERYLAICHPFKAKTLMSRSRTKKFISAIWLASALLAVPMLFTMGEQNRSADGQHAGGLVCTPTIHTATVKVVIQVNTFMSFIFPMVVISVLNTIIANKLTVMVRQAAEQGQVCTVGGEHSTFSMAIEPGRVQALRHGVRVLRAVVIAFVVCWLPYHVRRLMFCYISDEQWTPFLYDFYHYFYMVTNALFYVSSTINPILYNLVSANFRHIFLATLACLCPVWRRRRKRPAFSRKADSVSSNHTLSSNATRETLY

Compound	Ki (hNTS1R; mean, read-out: Ki (converted))	Ki (hNTS1R; [2])	pKi ± SEM (hNTS1R)	remaining at 10 min, 100 µM [1]	remaining at 25 min, 100 µM [1]	remaining at 1 h, 100 µM [1]	remaining at 2 h, 100 µM [1]	remaining at 6 h, 100 µM [1]	remaining at 24 h, 100 µM [1]	remaining at 48 h, 100 µM [1]	Ki (hNTS1R; mean)
C#CCCCCNC(=O)NC(=N)NCCC[C@H](N)C(=O)N[C@@H](CCCNC(=N)N)C(=O)N1CCC[C@H]1C(=O)N[C@@H](Cc1ccc(O)cc1)C(=O)N[C@H](C(=O)N[C@@H](CC(C)C)C(=O)O)C(C)(C)C [Compound 7, H-(N^ω-5-hexynylaminocarbonyl)Arg-Arg-Pro-Tyr-2-tert-butyl-Gly-Leu-OH tris(hydrotrifluoroacetate)]	4.6 nM	4.37 nM									
C#CCCCCNC(=O)NC(=N)NCCC[C@H](NC(=O)[C@@H](N)CCCNC(=N)N)C(=O)N1CCC[C@H]1C(=O)N[C@@H](Cc1ccc(O)cc1)C(=O)N[C@H](C(=O)N[C@@H](CC(C)C)C(=O)O)C(C)(C)C [Compound 8, H-Arg-(N^ω-5-hexynylaminocarbonyl)Arg-Pro-Tyr-2-tert-butyl-Gly-Leu-OH tris(hydrotrifluoroacetate)]	9.4 nM		8.03 ± 0.03								
C#CCCCCNC(=O)NC(=N)NCCC[C@H](NC(=O)[C@H](CCCNC(=N)N)NC)C(=O)N1CCC[C@H]1C(=O)N[C@@H](Cc1ccc(O)cc1)C(=O)N[C@H](C(=O)N[C@@H](CC(C)C)C(=O)O)C(C)(C)C [Compound 9, N^α-(N^α-methylarginyl)-N^ω-(5-hexynylaminocarbonyl)Arg-Pro-Tyr-2-tert-butyl-Gly-Leu-OH tris(hydrotrifluoroacetate)]	7.7 nM	7.41 nM									
CC(C)C[C@H](NC(=O)[C@@H](NC(=O)[C@H](Cc1ccc(O)cc1)NC(=O)[C@@H]1CCCN1C(=O)[C@H](CCCNC(=N)N)NC(=O)[C@@H](N)CCCNC(=N)NC(=O)NCCCCc1cn([C@@H]2O[C@H](CF)[C@@H](O)[C@H](O)[C@H]2O)nn1)C(C)(C)C)C(=O)O [Compound 11, H-{N^ω-[N-(4-{1-[6-deoxy-6-fluoro-β-D-glucopyranosyl]-1H-1,2,3-triazol-4-yl}butyl)aminocarbonyl]}Arg-Arg-Pro-Tyr-2-tert-butyl-Gly-Leu-OH tris(hydrotrifluoroacetate)]	4.6 nM			72 ± 1%	24 ± 1%	1.1 ± 0.1%	< 1%				
CC(C)C[C@H](NC(=O)[C@@H](NC(=O)[C@H](Cc1ccc(O)cc1)NC(=O)[C@@H]1CCCN1C(=O)[C@H](CCCNC(=N)NC(=O)NCCCCc1cn([C@@H]2O[C@H](CF)[C@@H](O)[C@H](O)[C@H]2O)nn1)NC(=O)[C@@H](N)CCCNC(=N)N)C(C)(C)C)C(=O)O [Compound 12, H-Arg-{N^ω-[N-(4-{1-[6-deoxy-6-fluoro-β-D-glucopyranosyl]-1H-1,2,3-triazol-4-yl}butyl)aminocarbonyl]}Arg-Pro-Tyr-2-tert-butyl-Gly-Leu-OH tris(hydrotrifluoroacetate)]	5.8 nM	5.5 nM		86 ± 1%	28 ± 1%	< 1%	< 1%				
CN[C@@H](CCCNC(=N)N)C(=O)N[C@@H](CCCNC(=N)NC(=O)NCCCCc1cn([C@@H]2O[C@H](CF)[C@@H](O)[C@H](O)[C@H]2O)nn1)C(=O)N1CCC[C@H]1C(=O)N[C@@H](Cc1ccc(O)cc1)C(=O)N[C@H](C(=O)N[C@@H](CC(C)C)C(=O)O)C(C)(C)C [Compound 13, N^α-(N^α-methylarginyl)-{N^ω-[N-(4-{1-[6-deoxy-6-fluoro-β-D-glucopyranosyl]-1H-1,2,3-triazol-4-yl}butyl)aminocarbonyl]}Arg-Pro-Tyr-2-tert-butyl-Gly-Leu-OH tris(hydrotrifluoroacetate)]	6.2 nM						> 99%	> 99%	> 99%	96 ± 1%	one-digit nanomolar range
CC(C)C[C@H](NC(=O)[C@@H](NC(=O)[C@H](Cc1ccc(O)cc1)NC(=O)[C@@H]1CCCN1C(=O)[C@H](CCCNC(=N)N)NC(=O)[C@@H](N)CCCNC(=N)NC(=O)NCCCCN)C(C)(C)C)C(=O)O [Compound 14, N^ω-[(4-aminobutyl)aminocarbonyl]Arg-Arg-Pro-Tyr-2-tert-butyl-Gly-Leu-OH tetrakis(hydrotrifluoroacetate)]	2.2 nM	2.04 nM		50 ± 2%		< 1%		< 1%	< 1%		
CN[C@@H](CCCNC(=N)NC(=O)NCCCCN)C(=O)N[C@@H](CCCNC(=N)N)C(=O)N1CCC[C@H]1C(=O)N[C@@H](Cc1ccc(O)cc1)C(=O)N[C@H](C(=O)N[C@@H](CC(C)C)C(=O)O)C(C)(C)C [Compound 16, N^α-methyl-N^ω-[(4-aminobutyl)aminocarbonyl]Arg-Arg-Pro-Tyr-2-tert-butyl-Gly-Leu-OH tetrakis(hydrotrifluoroacetate)]	2.8 nM					> 99%		> 99%	> 99%	> 99%	
C#CCCC(=O)NCCCCNC(=O)NC(=N)NCCC[C@H](N)C(=O)N[C@@H](CCCNC(=N)N)C(=O)N1CCC[C@H]1C(=O)N[C@@H](Cc1ccc(O)cc1)C(=O)N[C@H](C(=O)N[C@@H](CC(C)C)C(=O)O)C(C)(C)C [Compound 18, H-{N^ω-[N-(4-pent-4-ynoylaminobutyl)aminocarbonyl]}Arg-Arg-Pro-Tyr-2-tert-butyl-Gly-Leu-OH tris(hydrotrifluoroacetate)]	4.4 nM	4.27 nM		59 ± 1%		< 1%		< 1%	< 1%		
C#CCCC(=O)NCCCCNC(=O)NC(=N)NCCC[C@H](NC)C(=O)N[C@@H](CCCNC(=N)N)C(=O)N1CCC[C@H]1C(=O)N[C@@H](Cc1ccc(O)cc1)C(=O)N[C@H](C(=O)N[C@@H](CC(C)C)C(=O)O)C(C)(C)C [Compound 19, N^α-methyl-{N^ω-[N-(4-pent-4-ynoylaminobutyl)aminocarbonyl]}Arg-Arg-Pro-Tyr-2-tert-butyl-Gly-Leu-OH tris(hydrotrifluoroacetate)]	7.7 nM					> 99%		> 99%	> 99%	99 ± 1%	
CC(C)C[C@H](NC(=O)[C@@H](NC(=O)[C@H](Cc1ccc(O)cc1)NC(=O)[C@@H]1CCCN1C(=O)[C@H](CCCNC(=N)N)NC(=O)[C@@H](N)CCCNC(=N)NC(=O)NCCCCNC(=O)CCc1cn([C@@H]2O[C@H](CF)[C@@H](O)[C@H](O)[C@H]2O)nn1)C(C)(C)C)C(=O)O [Compound 20, H-(N^ω-{N-[4-(3-{1-[6-deoxy-6-fluoro-β-D-glucopyranosyl]-1H-1,2,3-triazol-4-yl}propanoyl)aminobutyl]aminocarbonyl})Arg-Arg-Pro-Tyr-2-tert-butyl-Gly-Leu-OH tris(hydrotrifluoroacetate)]	2.5 nM			78 ± 1%		6.4 ± 0.1%			< 1%		

From PMC9440028, “Neurotensin analogs by fluoroglycosylation at N^ω-carbamoylated arginines for PET imaging of NTS1-positive tumors” (Scientific Reports, 2022)
